Test results taken from patent US8062860B2, “Kit for measuring in vivo mutation frequency at an endogenous gene locus” (Litron Laboratories, Ltd., priority 2006, dated 2011).
Entries after “also recorded” stand apart in the source; their conditions may differ.

How the values were obtained:
pig-a gene [1] = assay: pig-a mutant erythrocyte frequency measured with and without aerolysin selective lysis, using counting beads (Example 3); type: in vivo, Sprague-Dawley rat; conditions: female rats; ENU 100 mg/kg/day or DMBA 40 mg/kg/day on three days; blood 6 weeks thereafter; vs untreated; FIG. 5
Description: Blood samples are obtained and processed (labeling with fluorochromes) as described above. Specimens were subsequently divided to provide pig-a mutant erythrocyte frequency measurements made with and without the use of aerolysin. To each of the samples, a small volume of high density microsphere suspension is added. Preferably, between about 10^3 to about 10^6 microspheres/specimen are added. Suitable microspheres are commercially available from a number of sources, including Becton Dickinson, Molecular Probes, and Polysciences. After mixing each sample to ensure a homogeneous suspension, a small aliquot of each cell/microsphere solution is transferred to a tube containing a balanced salt solution such that the resulting dilution yields a density of beads and cells which is low enough so that the rate of particles passing through the detection device yields accurate measurements (e.g., less than about 7,000 events per second for a Becton Dickinson FACSCalibur; higher densities may lead to excessive coincidence, which is multiple particles simultaneously at the fluid stream-laser beam intersection). The other (undiluted) specimen is treated with aerolysin to lyse the majority of non-mutant erythrocytes and reticulocytes. Reticulocyte:bead ratios are measured for both diluted and undiluted/aerolysin-treated samples using, e.g., an optical detection system of the type described above. From these ratios, it is possible to calculate the frequency of mutant reticulocytes per 10^6 reticulocytes.
For example, a small volume of a bead stock suspension (10 μl) is added to a suspension of high density cells that have been stained for a mutation frequency determination (1 ml). A small fraction of the cell/bead suspension is then transferred to a tube containing an isotonic solution such that the resulting density of beads and cells is low enough to prevent excessive coincidence. Flow cytometric analysis then allows for determination of the reticulocyte to bead ratio; for example 7,500 reticulocytes and 100 beads would indicate a ratio of 75 reticulocytes per bead. The aerolysin-treated specimen (with a majority of non-mutant erythrocytes and reticulocytes lysed due to aerolysin) is subsequently analyzed. Even while the majority of erythrocytes and reticulocytes have been lysed, it is still possible to analyze 10^6 or more “virtual reticulocytes” by setting the stop mode so that the proportionate number of beads (which are unaffected by aerolysin) have been interrogated. In this example, the stop mode would be set so that data accumulate until 10^6 divided by 75 beads have been acquired, i.e., 13,333 beads. In this manner, it is possible to score the number of mutant reticulocytes per 13,333 beads, or in other words, per 10^6 virtual reticulocytes. […]

pig-a gene [2] = assay: mutant erythrocytes versus mutant reticulocytes, FSC and FL1 thresholding (Example 5); type: in vivo, rat; conditions: rats, 100 mg ENU/kg/day or 40 mg DMBA/kg/day three times in one week; 4 weeks post-exposure; vs untreated; FIG. 7
Description: In practice, this means the mutation frequency for entire erythrocyte population and a mutation frequency for the reticulocyte fraction can each be efficiently determined by analyzing each stained blood specimen two times: once at high density with FL1 thresholding, and a second time upon dilution using a FSC threshold setting. In this manner it is possible to efficiently interrogate enough cells (e.g. 10^6 reticulocytes and also 10^6 total erythrocytes) for accurate measures of mutant frequency (see FIGS. 4A-B).
For this experiment, rats were untreated, or exposed to 100 mg ENU/kg/day or 40 mg DMBA/kg/day. These exposures were performed three times in one week (M, W, F). Blood was collected from the tail vein of these animals 4 weeks post-exposure. Blood samples were stained according to the present invention. Specifically, high density blood specimens were contacted with anti-CD59-PE to differentially label mutant and non-mutant erythrocytes, and biotinylated anti-CD61 followed by streptavidin-Cy5-PE as a platelet-specific label used to exclude these particles from analysis. After a washing steps to remove unbound antibodies and streptavidin-Cy5-PE, cells were resuspended in a thiazole orange solution (0.1 μg/ml) and allowed to incubate at room temperature for about 30 minutes. Specimens were placed on ice and protected from light until flow cytometric analysis (within about 4 hours). Cells were analyzed at low density with FSC thresholding, and also at high density with FL1 thresholding. As described in Example 2, this provided mutant frequencies in both the total erythrocyte and the reticulocyte populations.

pig-a gene [3] = assay: three-color flow cytometric scoring of pig-a mutant (CD59-negative) erythrocytes in blood of treated rats (Example 1); type: in vivo; conditions: rat, 100 mg/kg/day for three days at 48 hr intervals; blood several weeks after final administration; FIG. 3E
Description: Whole blood specimens (EDTA as anticoagulant) were obtained from the tail vein of vehicle- or ethyl-N-nitrosourea (ENU) treated rats (100 mg/kg/day for three days at 48 hr intervals; blood collected several weeks after the final administration). […] Thereafter, cells were contacted with anti-CD59-PE to differentially label mutant and non-mutant erythrocytes, and biotinylated anti-CD61 followed by streptavidin-Cy5-PE as a platelet-specific label used to exclude these particles from analysis. After washing steps to remove unbound antibodies and unbound streptavidin-Cy5-PE, cells were resuspended in a thiazole orange solution (0.1 μg/ml). Specimens were incubated at room temperature for about 30 minutes, and thereafter were placed on ice until flow cytometric analysis occurred (within about 4 hours).
As shown by FIGS. 3A-E, the labeling procedure was able to successfully discriminate mature erythrocytes and reticulocytes from other cell types, as well as from platelets. Furthermore, it was capable of providing high fluorescent resolution between CD59-negative and CD59-positive erythrocytes, thus facilitating quantification of mutant erythrocyte frequency.
The flow cytometry data acquisition/analysis software (CellQuest v3.3) allowed for configuring alternative gating strategies.

pig-a gene [4] = assay: time course of CD59-negative reticulocyte frequency with FL1 thresholding (Example 4); type: in vivo, Sprague Dawley rat
Description: In this case, it is possible to set the threshold parameter to the nucleic acid dye-associated fluorescence channel (e.g., FL1 for thiazole orange), as opposed to the more common forward scatter trigger. When set sufficiently high (that is, above the fluorescence intensity of mature erythrocytes), this can restrict analysis to reticulocytes.
Rather, it must be coupled with the preparation of very high density specimens. When these two adjustments are made, much quicker data acquisition rates are achieved. For instance, by eliminating mature erythrocytes with an FL1 threshold and analyzing specimens prepared at very high cell densities (for example 3×10^8/ml), it is possible to reduce the time needed to acquire 10^6 reticulocytes from 80 minutes to about 5 to 15 minutes.
The use of serial blood specimens also facilitated an assessment of the influence of blood harvest time. For this experiment, Sprague Dawley rats were treated with either vehicle or […] on three days (M, W, F). Blood was collected from the tail vein of these animals before treatment and over a 5 week post-exposure period. After two washing steps, high density blood samples were stained according to the present invention. […] Cells were analyzed according to the FL1 thresholding technique described in Example 2.

Cc1c2ccccc2c(C)c2c1ccc1ccccc12 [DMBA, 7,12-dimethyl-1,2-benz[a]anthracene] was tested, and the “mutant erythrocyte (CD59-negative) frequency, analysis with aerolysin to enrich for mutants” value (pig-a gene [1]) was “significant increases”, the “mutant erythrocyte (CD59-negative) frequency, analysis without aerolysin” value (pig-a gene [1]) was “significant increases” and the “frequency of CD59-negative erythrocytes (total erythrocyte population)” value (pig-a gene [2]) was “greatly elevated”. The “frequency of CD59-negative reticulocytes” value (pig-a gene [2]) was “greatly elevated”.
With CCN(N=O)C(N)=O [ENU, ethyl-N-nitrosourea] the “frequency of mutant (CD59-negative) erythrocytes” value (pig-a gene [3]) was “relatively high frequency of mutant erythrocytes”, the “mutant erythrocyte (CD59-negative) frequency, analysis with aerolysin to enrich for mutants” value (pig-a gene [1]) was “significant increases” and the “mutant erythrocyte (CD59-negative) frequency, analysis without aerolysin” value (pig-a gene [1]) was “significant increases”. The “CD59- (mutant) reticulocyte frequency” value (pig-a gene [4]; rats, 100 mg ENU/mg/day on three days, 5 week post-exposure period, three animals, vs vehicle, FIG. 6) was “greatly elevated; also recorded: markedly elevated”, the “time of maximal mutant reticulocyte frequency” value (pig-a gene [4]; two of the three ENU-treated animals (E2 and E3), animal E1 continued to rise through week 5) was 4 week and the “frequency of CD59-negative erythrocytes (total erythrocyte population)” value (pig-a gene [2]) was “greatly elevated”. For the same compound, the “frequency of CD59-negative reticulocytes” value (pig-a gene [2]) was “greatly elevated”.
